Assay results published in patent US9802974B2, “Synthesis of diverse glycosylphosphatidylinositol glycans from Toxoplasma gondii and their application as vaccines and diagnostics” (Max-Planck-Gesellschaft zur Förderung der Wissenschaften …, priority 2012, dated 2017).
Entries after “also recorded” stand apart in the source; their conditions may differ.

System: serum antibodies raised against the conjugate consisting of compound 3 covalently linked to CRM197
Assay: Carbohydrate microarray analysis of serum from Balb/c mice immunized with the conjugate of compound 3 and CRM197
Type: binding
Conditions: pooled serum of Balb/c mice immunized with compound 3-CRM197 conjugate; compounds printed at 1 mM; FIG. 3
Method: FIG. 3: left side: Analysis of pooled serum that was obtained 4 weeks after 1st immunization of Balb/c mice with a conjugate consisting of CRM197 covalently linked to compound 3; right side: Printing pattern: all compounds were printed in a 3×3 pattern and in a concentration of 1 mM; left, upper corner: compound 5; left lower corner: compound 3; right, upper corner: compound 4; right lower corner: (α-D-Mannopyranosyl)-(1→2)-(α-D-mannopyranosyl)-(1→2)-(α-D-mannopyranosyl)-(1→6)-(α-D-mannopyranosyl)-(1→4)-(2-amino-2-deoxy-α-D-glucopyranosyl)-(1→6)-1-O-(6-thiohexyl phosphono)-D-myo-inositol (Chem. Eur. J. 2005, 11, 2493).
Three female BALB/c mice were immunized s.c. with 35 μg conjugate, prepared as described in example 11a, in Freund's complete adjuvant. […] After the second immunization, serum was collected and the antibody titer (total IgG) was determined by microarray six weeks after the first immunization.

Molecule	binding of serum antibodies to the glycan printed on the microarray
6-O-(aminoethyl phosphono)-α-D-mannopyranosyl-(1→2)-α-D-mannopyranosyl-(1→6)-4-O-(α-D-glucopyranosyl-(1→4)-2-deoxy-2-acetamido-β-D-galactopyranosyl)-α-D-manno-pyranosyl-(1→4)-2-amino-2-deoxy-α-D-glucopyranosyl-(1→6)-1-O-(thiohexyl phosphono)-D-myo-inositol [compound 4]	not
CC(=O)NC1C(O)[C@@H](O)C(CO)O[C@H]1O[C@@H]1C(CO[C@H]2OC(CO)[C@@H](O)C(O)C2O[C@H]2OC(COP(=O)(O)OCCN)[C@@H](O)C(O)C2O)O[C@H](O[C@@H]2C(CO)O[C@H](O[C@@H]3C(O)C(O)[C@@H](O)C(O)C3OP(=O)(O)OCCCCCCS)C(N)C2O)C(O)C1O (stereo partly drawn) [compound 3, 6-O-(aminoethylphosphono)-α-D-mannopyranosyl-(1→2)-α-D-mannopyranosyl-(1→6)-4-O-(2-deoxy-2-acetamido-β-D-galactopyranosyl)-α-D-mannopyranosyl-(1→4)-2-amino-2-deoxy-α-D-glucopyranosyl-(1→6)-1-O-(thiohexylphosphono)-D-myo-inositol]	specifically evoke a binding; also recorded: bound
N[C@H]1[C@@H](O[C@@H]2[C@@H](O)[C@H](O)[C@@H](O)[C@@H](O)[C@H]2OP(=O)(O)OCCCCCCS)O[C@H](CO)[C@@H](O[C@H]2O[C@H](CO[C@H]3O[C@H](CO)[C@@H](O)[C@H](O)[C@@H]3O[C@H]3O[C@H](CO)[C@@H](O)[C@H](O)[C@@H]3O[C@H]3O[C@H](CO)[C@@H](O)[C@H](O)[C@@H]3O)[C@@H](O)[C@H](O)[C@@H]2O)[C@@H]1O [(α-D-Mannopyranosyl)-(1→2)-(α-D-mannopyranosyl)-(1→2)-(α-D-mannopyranosyl)-(1→6)-(α-D-mannopyranosyl)-(1→4)-(2-amino-2-deoxy-α-D-glucopyranosyl)-(1→6)-1-O-(6-thiohexylphosphono)-D-myo-inositol, reference compound]	not
CC(=O)NC1C(O)[C@@H](O)C(CO)O[C@H]1O[C@@H]1C(CO[C@H]2OC(CO)[C@@H](O)C(O)C2O[C@H]2OC(COP(=O)(O)OCCN)[C@@H](O)C(O)C2O)O[C@H](O[C@@H]2C(CO)O[C@H](O[C@@H]3C(O)C(O)[C@@H](O)C(O)C3OP(=O)(O)OCCCCCCS)C(N)C2O)C(OP(=O)(O)OCCN)C1O (stereo partly drawn) [compound 5, 6-O-(aminoethylphosphono)-α-D-mannopyranosyl-(1→2)-α-D-mannopyranosyl-(1→6)-2-O-(aminoethylphosphono)-4-O-(2-deoxy-2-acetamido-β-D-galactopyranosyl)-α-D-mannopyranosyl-(1→4)-2-amino-2-deoxy-α-D-glucopyranosyl-(1→6)-1-O-(thiohexylphosphono)-D-myo-inositol]	not and did not show cross reactivity
